Results as given in patent publication US20230242532A1, “TETRACYCLIC PYRIMIDINONE COMPOUND, PREPARATION METHOD THEREFOR, AND COMPOSITION AND USE THEREOF” (NEUSCO BIOTECH LIMITED, priority 2019, published 2023).
Read-outs that look alike come from different tables or passages of the source.

Columns and labels:
[1] = molecular target: T1, Lp-PLA2 enzyme in human plasma (Homo sapiens, UniProt Q13093); test: Assay of Lp-PLA2 in human plasma (Thio-PAF assay); format: biochemical
T1 construct: from tissue; host or cells: mixed (pooled) human plasma
T1 sequence (Q13093 22-441): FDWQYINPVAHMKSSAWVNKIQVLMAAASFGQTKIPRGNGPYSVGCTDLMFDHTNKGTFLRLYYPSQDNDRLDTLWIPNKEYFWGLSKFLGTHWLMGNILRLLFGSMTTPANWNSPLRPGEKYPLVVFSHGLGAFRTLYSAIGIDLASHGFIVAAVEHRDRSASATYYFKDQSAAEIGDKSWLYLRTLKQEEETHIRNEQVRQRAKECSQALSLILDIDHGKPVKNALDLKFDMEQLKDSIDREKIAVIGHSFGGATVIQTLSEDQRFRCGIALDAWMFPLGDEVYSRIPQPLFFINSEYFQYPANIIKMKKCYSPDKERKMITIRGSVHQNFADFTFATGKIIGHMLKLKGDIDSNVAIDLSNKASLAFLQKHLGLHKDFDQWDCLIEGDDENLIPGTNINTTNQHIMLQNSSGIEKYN
Description: (2) Assay of Lp-PLA2 in Human Plasma (Also Referred to as Thio-PAF Assay)
The human plasma assay was conducted using the sulphatide analog of PAF (phosphatidylcholine). After hydrolysis, it would generate phospholipids containing free sulfhydryl groups, which would be subjected to Michael addition with CPM to generate fluorescence-enhancing maleimide. Continuous quantitative analysis of thiol could be conducted by detecting the fluorescence intensity. This assay could be used to detect the inhibitory activity of the Lp-PLA2 inhibitor on the Lp-PLA2 enzyme in human plasma.
Assay Method: The compound to be tested (as shown in Table 2) was mixed with a DMSO solution in a volume ratio of (1:3), and diluted to prepare a source plate of a 384-well microplate. Then 0.01 μl of the compound was transferred via an ECHO liquid dispenser from the source plate to a 384-well Greiner 784076 plate, and 8 μl of pre-aliquoted and frozen mixed human plasma was then added. The plate was centrifuged at 500 rpm for 10 seconds. After a 30-min pre-incubation, 2 μl of a substrate solution, and a buffer containing 2.5 mM 2-thio-PAF (a solution in ethanol), 32 μM CPM (a solution in DMSO) and 3.2 mM N-ethylmaleimide (NEM) (a buffer solution consisting of 50 mM HEPES, pH7.4, 150 mM NaCl, 1 mM CHAPS) was added by a BRAVO liquid handling station to a 384-well Greiner 784076 low-volume plate. Two minutes later, the reaction was quenched with 5 μl of 5% trifluoroacetic acid. After the plate was incubated at room temperature for 40 min in a dark place, the fluorescence intensity was read at ex 380/em 485 with an Envision microplate reader, and the XL fitting model in Excel was used to perform the curve analysis and QC analysis to calculate pIC50.

[2] = molecular target: T2, recombinant human Lp-PLA2 enzyme (Homo sapiens, UniProt Q13093); test: Recombinant human Lp-PLA2 assay (rhLp-PLA2), PED6 assay; format: biochemical
T2 sequence (Q13093 22-441): T1 sequence (Q13093 22-441)
Description: (1) Recombinant Human Lp-PLA2 Assay (rhLp-PLA2), Also Referred to as PED6 Assay
PED6 was a fluorescently-labeled phospholipid that could be purchased dorectly from Invitogene or Molecular Probes. […] Once cleaved by the Lp-PLA2 enzyme, it would release the FL group, resulting in enhanced fluorescence.
Assay Method: The compound to be tested (as shown in Table 1) was mixed with a DMSO solution in a volume ratio of 1:3, and diluted to prepare a source plate of a 384-well microplate. Then 0.01 μl of the compound was transferred via an ECHO liquid dispenser from the source plate to a 384-well Greiner 784076 plate, and 5 μl of a buffer consisting of 50 mM HEPES, pH7.4, 150 mM NaCl, and 1 mM CHAPS (the buffer solution containing a recombinant human Lp-PLA2 enzyme at a concentration of 4 nM or 110 pM) was added to each well of the plate. The plate was centrifuged at 500 rpm for 10 seconds. After a 30-min pre-incubation, 5 μl of the above-mentioned buffer was added to a 384-well Greiner 784076 plate, the plate was centrifuged at 500 rpm for 10 seconds.

[3] = mixed human plasma, 2-thio-PAF substrate with CPM, 30-min pre-incubation, fluorescence ex 380/em 485, read-out: Thio-PAF (pIC50) (converted)
[4] = PED6 substrate, recombinant human Lp-PLA2 at 4 nM or 110 pM, 30-min pre-incubation, fluorescence ex 480/em 540, read-out: rhLp-PLA2 (pIC50) (converted)

| Compound | IC50 [1, 3] [nM] | IC50 [2, 4] [nM] | IC50 [1] [nM] | IC50 [2] [nM] |
| --- | --- | --- | --- | --- |
| Cc1ncc(Oc2c(F)cc(COc3cc4n(c(=O)n3)CC35CCC(CC3)N45)cc2F)cn1 [Compound 9] | 12.6 | 0.1 |  |  |
| Cc1cc(Oc2c(F)cc(COc3cc4n(c(=O)n3)CC35CCC(CC3)N45)cc2F)ccn1 [Compound 7] | 3.16 | 0.0398 |  |  |
| O=c1nc(OCc2cc(F)c(Oc3ccc(C(F)(F)F)c(Cl)c3)c(F)c2)cc2n1CC13CCC(CC1)N23 [Compound 14] | 7.94 | 0.0794 |  |  |
| O=c1nc(OCc2cc(F)c(Oc3ccnc(C(F)(F)F)c3)c(F)c2)cc2n1CC13CCC(CC1)N23 [Compound 4] | 3.98 | 0.0398 |  |  |
| O=c1nc(OCc2cc(F)c(Oc3ccc(Cl)c(C(F)(F)F)c3)c(F)c2)cc2n1CC13CCC(CC1)N23 [Compound 10] | 7.94 | 0.0631 |  |  |
| O=c1nc(OCc2cc(F)c(Oc3ccc(C(F)(F)F)cc3)c(F)c2)cc2n1CC13CCC(CC1)N23 [Compound 5] | 6.31 | 0.0316 |  |  |
| O=c1nc(OCc2cc(F)c(Oc3cccc(OC(F)(F)F)c3)c(F)c2)cc2n1CC13CCC(CC1)N23 [Compound 16] | 12.6 | 0.1 |  |  |
| O=c1nc(OCc2cc(F)c(Oc3ccnc(C(F)(F)F)c3)c(F)c2)cc2n1CC13CCCC(CC1)N23 (stereo not drawn) [Compound 18] | 7.94 | 0.1 |  |  |
| O=c1nc(OCc2ccc(F)c(F)c2)cc2n1CC13CCC(CC1)N23 [Compound 3] |  |  | 15.8 | 0.501 |
| Cc1ccc(Oc2c(F)cc(COc3cc4n(c(=O)n3)CC35CCC(CC3)N45)cc2F)cn1 [Compound 8] | 7.94 | 0.0316 |  |  |
| Cc1cc(Oc2c(F)cc(COc3cc4n(c(=O)n3)CC35CCC(CC3)N45)cc2F)ccc1Cl [Compound 12] | 10 | 0.0794 |  |  |
| Cc1ncc(Oc2c(F)cc(COc3cc4n(c(=O)n3)CC35CCCC(CC3)N45)cc2F)cn1 (stereo not drawn) [Compound 19] | 15.8 | 0.316 |  |  |
| O=c1nc(OCc2cc(F)c(Oc3ccc(OC(F)(F)F)c(Cl)c3)c(F)c2)cc2n1CC13CCC(CC1)N23 [Compound 17] | 10 | 0.0794 |  |  |
| O=c1nc(OCc2cccc(F)c2F)cc2n1CC13CCC(CC1)N23 [Compound 1] |  |  | 100 | 2.51 |
| O=c1nc(OCc2cc(F)c(Oc3cccc(C(F)(F)F)c3)c(F)c2)cc2n1CC13CCC(CC1)N23 [Compound 11] | 12.6 | 0.0794 |  |  |
| O=c1nc(OCc2cc(F)c(Oc3cnc(C(F)(F)F)nc3)c(F)c2)cc2n1CC13CCC(CC1)N23 [Compound 13] | 20 | 0.251 |  |  |
| O=c1nc(OCc2ccc(F)cc2)cc2n1CC13CCC(CC1)N23 [Compound 2] |  |  | 25.1 | 0.794 |
| O=c1nc(OCc2cc(F)c(Oc3ccc(C(F)(F)F)nc3)c(F)c2)cc2n1CC13CCC(CC1)N23 [Compound 6] | 7.94 | 0.0501 |  |  |
